Test results: patent publication US20210052547A1 (priority 2016, published 2021)

How the values were obtained:
[1] = system: rats exposed to ethylene glycol; test: murine model of ethylene glycol poisoning; format: in vivo, rat
Description: A murine model of ethylene glycol poisoning has been prepared by giving 6 g/kg ethylene glycol orally once to twelve adult Sprague-Dawley rats (single oral administration).
Rats have been sacrificed 48 hours after ethylene glycol intake, blood and urine parameters have been collected and kidneys have been removed for histopathological analyses.

[2] = system: calcium-oxalate kidney stone murine model; test: calcium-oxalate kidney stone murine model (calcium chloride and hydroxyproline in drinking water); format: in vivo, rat; conditions: Stiripentol 4 g/L in drinking water (about 150 mg/Kg), 4 months, versus controls
Source text: A calcium-oxalate kidney stone murine model has been generated. […] The rats have been exposed for 4 month to this diet. […] Rats have been sacrificed at the end of the protocol and kidneys have been removed for analyses.

[3] = target: lactate dehydrogenase 1 (LDH-1) (Homo sapiens, UniProt P07195); conditions: in neurons; cited from earlier work
lactate dehydrogenase 1 (LDH-1), sequence (P07195 2-334 limits assumed): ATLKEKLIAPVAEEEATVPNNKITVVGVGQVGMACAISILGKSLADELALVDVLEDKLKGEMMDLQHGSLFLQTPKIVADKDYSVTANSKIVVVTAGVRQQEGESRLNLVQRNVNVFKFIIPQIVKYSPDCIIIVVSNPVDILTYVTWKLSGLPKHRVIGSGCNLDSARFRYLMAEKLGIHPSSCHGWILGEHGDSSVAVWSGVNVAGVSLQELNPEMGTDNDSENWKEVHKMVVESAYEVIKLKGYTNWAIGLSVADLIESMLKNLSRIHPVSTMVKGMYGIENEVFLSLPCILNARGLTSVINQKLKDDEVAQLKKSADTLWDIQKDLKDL

[4] = target: CYP1A2 (Homo sapiens, UniProt P05177); conditions: cited from earlier work
CYP1A2, sequence (P05177 whole entry): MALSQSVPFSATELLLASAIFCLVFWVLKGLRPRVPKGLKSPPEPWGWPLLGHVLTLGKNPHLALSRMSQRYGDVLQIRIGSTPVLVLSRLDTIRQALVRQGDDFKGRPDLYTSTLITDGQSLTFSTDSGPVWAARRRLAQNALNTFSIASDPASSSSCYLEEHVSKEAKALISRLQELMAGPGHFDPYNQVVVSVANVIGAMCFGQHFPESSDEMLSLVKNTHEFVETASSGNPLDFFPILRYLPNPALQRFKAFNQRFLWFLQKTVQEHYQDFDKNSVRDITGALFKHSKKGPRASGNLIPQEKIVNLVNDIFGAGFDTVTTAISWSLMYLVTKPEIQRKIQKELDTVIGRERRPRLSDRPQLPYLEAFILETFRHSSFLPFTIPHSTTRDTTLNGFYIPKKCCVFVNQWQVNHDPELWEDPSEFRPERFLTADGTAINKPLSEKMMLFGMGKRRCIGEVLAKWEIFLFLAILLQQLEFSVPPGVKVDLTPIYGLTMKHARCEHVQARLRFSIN

[5] = target: CYP3A4 (Homo sapiens, UniProt P08684); conditions: cited from earlier work
CYP3A4, sequence (P08684 whole entry): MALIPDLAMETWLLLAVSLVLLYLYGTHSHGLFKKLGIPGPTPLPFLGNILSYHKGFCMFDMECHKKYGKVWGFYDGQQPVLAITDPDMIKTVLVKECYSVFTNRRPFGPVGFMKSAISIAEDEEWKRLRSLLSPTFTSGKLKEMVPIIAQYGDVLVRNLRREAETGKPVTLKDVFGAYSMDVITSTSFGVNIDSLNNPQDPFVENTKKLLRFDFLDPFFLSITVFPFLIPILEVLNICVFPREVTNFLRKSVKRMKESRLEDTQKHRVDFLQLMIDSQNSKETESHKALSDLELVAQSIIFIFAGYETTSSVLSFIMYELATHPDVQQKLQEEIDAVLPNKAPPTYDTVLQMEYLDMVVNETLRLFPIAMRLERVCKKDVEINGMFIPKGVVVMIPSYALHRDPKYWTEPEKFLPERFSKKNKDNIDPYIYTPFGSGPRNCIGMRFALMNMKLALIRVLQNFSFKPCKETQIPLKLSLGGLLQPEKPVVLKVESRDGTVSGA

[6] = system: uptake of gamma-aminobutyric acid (GABA); conditions: cited from earlier work
[7] = target: lactate dehydrogenase 5 (LDH-5) (Homo sapiens, UniProt P00338); conditions: in neurons; cited from earlier work

Row | Compound | calcium oxalate crystals in kidneys (histopathology, kidney section coverage) ([1]; 6 g/kg ethylene glycol orally once, Stiripentol 300 mg/kg at intoxication and 4 g/L in drinking water days 1 and 2, 48 hours, p=0.0046) | urinary oxalate excretion induced by ethylene glycol poisoning ([1]; Stiripentol at therapeutic range) | renal function assessed by serum creatinine levels ([1]; ethylene glycol intoxicated rats, Stiripentol 300 mg/kg then 4 g/L in drinking water, 48 hours, p=0.009) | calcium oxalate crystals in urine [2] | renal function assessed by serum creatinine levels ([2]; p=0.002) | inhibition of pyruvate to lactate conversion by LDH-1 [3] | inhibition of CYP1A2 [4] | inhibition of CYP3A4 [5] | inhibition of the uptake of GABA [6] | inhibition of pyruvate to lactate conversion by LDH-5 [7]
1 | CC(C)(C)C(O)/C=C/c1ccc2c(c1)OCO2 (racemic) [Stiripentol, 4,4-dimethyl-1-[(3,4-methylenedioxy)-phenyl]-1-penten-3-ol] | much less crystals | decreases urinary oxalate excretion | remarkably less impaired | less calcium oxalate crystals in urine | preserved renal function | inhibit | inhibitor | inhibitor | inhibits | –
2 | C/C=C/c1ccc2c(c1)OCO2 [Isosafrole, 3,4-methylenedioxyphenyl-1-propene] | – | – | – | – | – | inhibit | – | – | – | inhibit
